Data published in patent US5625083A, “Dinitroglycerol esters of unsaturated fatty acids and prostaglandins” (priority 1995, dated 1997).
Where two headings read alike, the source gives them in different places.

How the values were obtained:
human platelets [1] = experiment: ADP-induced aggregation of human platelets; assay type: cell-based; conditions: for inhibition of ADP induced human platelet aggregation: moderate antiaggregating activity
Protocol: 1,3Dinitroglycerol ester of prostaglandin D2 inhibited aggregation of human platelets induced by ADP ([…]) in dose 0.1 mg/ml of plasma on 50%.

RAT STOMACH = experiment: Rat stomach contraction; assay type: cell-based; conditions: for EC50: Rattus norvegicus
RAT UTERUS = experiment: Rat uterus contraction; assay type: cell-based; conditions: for EC50: Rattus norvegicus
GUINEA PIG TRACHEA = experiment: Isolated guinea pig trachea relaxation / contraction; assay type: cell-based; conditions: for EC50: Cavia porcellus
isolated rat aorta [2] = experiment: Isolated rat aorta relaxation / contraction; assay type: cell-based; conditions: for EC50: Rattus norvegicus; for effect on isolated rat aorta: result in words
RAT COLON = experiment: Rat colon contraction; assay type: cell-based; conditions: for EC50: Rattus norvegicus
rat and rabbit tissues = experiment: Hypertensive activity in experiments with rat and rabbit tissues; conditions: relative to parent PGE2
mice [3] = experiment: Mice survival under conditions of hypobaric hypoxia; assay type: in vivo; conditions: Hypobary (9000 m); 1 mg/kg; control 18.5
Source text: (§1) INFLUENCE OF NITROPROSTON ON MICE SURVIVAL
UNDER CONDITIONS OF HYPOBARIC HYPOXIA AND

[4] = tested on: volunteers and patients with bronchus obstruction; experiment: Bronchodilation in volunteers and patients with bronchus obstruction; assay type: in vivo, human; conditions: given as a spray (5-7×10^-3 mg per dose)
Source text: This raises the possibility of using NITROPROSTON to treat bronchospasms.

mice [5] = experiment: Mice survival under toxic concentration of CO; assay type: in vivo
Source text: (§2) NITROPROSTON protected laboratory animals from a variety of noxious factors. It increased the survival of mice in an atmosphere with elevated CO or NO2 concentration: survival in the experimental group was 1.5-4 times higher than in the control group.
as §1
(§3) TOXIC CONCENTRATION OF CO OR NO2

mice [6] = experiment: Mice survival under toxic concentration of NO2; assay type: in vivo; conditions: NO2 (700 mg/m^3); 1 mg/kg; control 17
Source text: as §2, §1, §3

isolated rat aorta [7] = experiment: Stability of ethanolic solution of NITROPROSTON (relaxation of isolated rat aorta contracted with adrenaline after storage); assay type: cell-based; conditions: read-out: Relaxation of isolated rat aorta contracted with adrenaline, ED5O
Source text: Stability of ethanolic solution of NITROPROSTON.
Relaxation of isolated rat aorta
months contracted with adrenaline, ED5O, M*10^-6

mice [8] = experiment: Toxicity in mice; assay type: in vivo
[9] = tested on: rats with experimental hypercholesterolaemia; experiment: Peroxidation of serum or tissue lipids (MDA) of rats with experimental hypercholesterolaemia; assay type: in vivo, rat; conditions: 15 μg/kg intraperitoneally, 6 times per week, one month
Protocol: MDA contents as a parameter of lipid peroxidation were estimated after one month of animal development with indicated drugs in a dose 15 μg/kg body weight intraperitoneally, 6 times per week. Rats not developed by drugs served as a control.

[10] = tested on: rats with experimental hypercholesterolaemia; experiment: Lipid spectrum of serum of rats with experimental hypercholesterolaemia; assay type: in vivo, rat; conditions: 15 μg/kg intraperitoneally, 6 times per week, one month
Protocol: Lipids and lipid fractions in sera of rats with experimental hypercholesterolaemea were determined after one month of animal development with indicated drugs in a dose 15 μg/kg body weight intraperitoneally. 6 times per week. Rats not developed by drugs served as a control group.

heart rate = experiment: Heart rate and tachyphylaxis in experimental animals; assay type: in vivo
human platelets [11] = conditions: parent compound, no own test described; cited from earlier work
[12] = compared with prostaglandin F2α
[13] = contraction, read-out: stimulating rat uterine contractions, EC50
[14] = read-out: RAT UTERUS, contraction, EC50
[15] = read-out: GUINEA PIG TRACHEA relaxation, EC50
[16] = read-out: ISOLATED RAT AORTA relaxation, EC50
[17] = relaxation, read-out: vasodilating effect on the isolated rat aorta, EC50

## CC/C=C\C/C=C\C/C=C\CCCCCCCC(=O)OC(CO[N+](=O)[O-])CO[N+](=O)[O-] [1,3-dinitroglycerol ester of 9,12,15-octadecatrienoic acid]
Human platelets [1]
  inhibition of ADP induced human platelet aggregation: 30-50%

## CCCCC/C=C\C/C=C\C/C=C\C/C=C\CCCC(=O)OC(CO[N+](=O)[O-])CO[N+](=O)[O-] [1,3-dinitroglycerol ester of arachidonic acid]
Human platelets [1]; ADP (1×10^-5), dose 0.1 mg/ml of plasma
  inhibition of aggregation of human platelets induced by ADP: almost completely inhibited

## CC/C=C\C/C=C\C/C=C\C/C=C\C/C=C\C/C=C\CCC(=O)OC(CO[N+](=O)[O-])CO[N+](=O)[O-] [1,3-dinitroglycerol ester of docosahexaenoic acid]
Human platelets [1]
  inhibition of ADP induced human platelet aggregation: 30-50%

## CCCCC[C@H](O)/C=C/[C@H]1C(=O)C[C@H](O)[C@@H]1C/C=C\CCCC(=O)OC(CO[N+](=O)[O-])CO[N+](=O)[O-] [1,3-dinitroglycerol ester of prostaglandin D2]
Human platelets [1]; Homo sapiens, Platelet, ADP (1×10M), dose 0.1 mg/ml of plasma
  inhibition at 100 µg/mL: 50%

## CCCCC[C@H](O)/C=C/[C@@H]1[C@@H](C/C=C\CCCC(=O)OC(CO[N+](=O)[O-])CO[N+](=O)[O-])[C@@H](O)C[C@H]1O [NITROPROST-F, 1,3-dinitroglycerol ester of prostaglandin F2α]
RAT STOMACH
  EC50: 130 ± 10 nM
RAT STOMACH; [12]
  activity in rat stomach contraction: lower activity
RAT UTERUS; [13]
  EC50: 9 nM
RAT UTERUS; [14]
  EC50: 9 ± 1.7 nM
RAT UTERUS; relative to prostaglandin F2α
  effectiveness in stimulating rat uterine contractions, times more than prostaglandin F2α: more than 10 times
GUINEA PIG TRACHEA; [15]
  EC50: 10000 ± 1500 nM
Isolated rat aorta [2]; [16]
  EC50: 540 ± 190 nM
RAT COLON
  EC50: 175 ± 70 nM
RAT COLON; [12]
  effectiveness on rat colon: as effective as prostaglandin F2α

## CCCCC[C@H](O)/C=C/[C@H]1[C@H](O)CC(=O)[C@@H]1C/C=C\CCCC(=O)OC(CO[N+](=O)[O-])CO[N+](=O)[O-] [NITROPROSTON, 1,3-dinitroglycerol ester of prostaglandin E2]
RAT STOMACH
  EC50: 60 ± 10 nM
Rat and rabbit tissues
  hypertensive activity, times higher than that of the parent PGE2: 5 times
RAT UTERUS; [14]
  EC50: 400 ± 100 nM
Mice [3]
  Survival, %: 82%
[4]
  bronchodilation in volunteers and patients with bronchus obstruction: potent, effective bronchodilator
Mice [5]; CO (11 g/m^3), 1 mg/kg, control 41
  Survival, %: 66%
Mice [5]; mice, atmosphere with elevated CO or NO2 concentration
  survival in the experimental group, times higher than in the control group: 1.5-4 times
Mice [6]
  Survival, %: 65%
Isolated rat aorta [7]; time of storage 1 month
  EC50: 1540 ± 210 nM
Isolated rat aorta [7]; time of storage 12 months
  EC50: 1770 ± 148 nM
GUINEA PIG TRACHEA; [15]
  EC50: 7 nM
GUINEA PIG TRACHEA; relaxation, read-out: bronchodilating activity, EC50 in isolated guinea pig trachea
  EC50: 7.18 nM
Mice [8]
  LD50: > 100 mg
Isolated rat aorta [2]; [16]
  EC50: 680 ± 120 nM
Isolated rat aorta [2]; [17]
  EC50: 680 nM
[9]
  MDA level (%, relative to control), Aorta: 44%
  MDA level (%, relative to control), Liver: 77%
  MDA level (%, relative to control), Serum: 85%
[10]
  HDL cholesterol (HDLC), changes of the contents (%, relative to control): 123%
  HDLC/TSC, changes (%, relative to control): 128%
  LDL cholesterol, changes of the contents (%, relative to control): 57%
  Total lipids, changes of the contents (%, relative to control): 67%
  Total serum cholesterol (TSC), changes of the contents (%, relative to control): 95%
  Triglicerides, changes of the contents (%, relative to control): 95%
Heart rate
  effect on heart rate: did not affect the heart rate
  tachyphylaxis: no tachyphylaxis was observed

## CCCCC[C@H](O)/C=C/[C@H]1[C@H](O)CC(=NO)[C@@H]1CCCCCCC(=O)OC(CO[N+](=O)[O-])CO[N+](=O)[O-] [NITROPROX, 1,3-dinitroglycerol ester of 9-oxyiminoprostaglandin E1]
Isolated rat aorta [2]; [17]
  EC50: 640 nM
[9]
  MDA level (%, relative to control), Aorta: 32%
  MDA level (%, relative to control), Liver: 104%
  MDA level (%, relative to control), Serum: 101%
[10]
  HDL cholesterol (HDLC), changes of the contents (%, relative to control): 114%
  HDLC/TSC, changes (%, relative to control): 138%
  LDL cholesterol, changes of the contents (%, relative to control): 76%
  Total lipids, changes of the contents (%, relative to control): 92%
  Total serum cholesterol (TSC), changes of the contents (%, relative to control): 96%
  Triglicerides, changes of the contents (%, relative to control): 79%
Human platelets [1]; Homo sapiens, Platelet, read-out: antiaggregating properties, IC50, ADP-induced aggregation of human platelets
  IC50: 1100 nM

## CCCCC[C@H](O)/C=C/[C@H]1[C@H](O)CC(=O)[C@@H]1C/C=C\CCCC(=O)O [PGE2, prostaglandin E2, reference compound]
RAT STOMACH
  EC50: 40 ± 15 nM
RAT UTERUS; [14]
  EC50: 80 ± 16 nM
GUINEA PIG TRACHEA; [15]
  EC50: 140 ± 80 nM
Isolated rat aorta [2]; read-out: ISOLATED RAT AORTA contraction, EC50
  EC50: 84000 ± 1000 nM
Isolated rat aorta [2]
  effect on isolated rat aorta: induced muscle contraction

## CCCCC[C@H](O)/C=C/[C@@H]1[C@@H](C/C=C\CCCC(=O)O)[C@@H](O)C[C@H]1O [PGF2α, prostaglandin F2α, reference compound]
RAT STOMACH
  EC50: 50 ± 15 nM
RAT UTERUS; [13]
  EC50: 110 nM
RAT UTERUS; [14]
  EC50: 110 ± 40 nM
GUINEA PIG TRACHEA; result in words
  effect on isolated guinea pig trachea: contraction
Isolated rat aorta [2]
  effect on isolated rat aorta: contraction
RAT COLON
  EC50: 130 ± 71 nM

## CCCCC[C@H](O)/C=C/[C@H]1[C@H](O)CC(=O)[C@@H]1CCCCCCC(=O)OC(CO[N+](=O)[O-])CO[N+](=O)[O-] [PROSTANIT, 1,3-dinitroglycerol ester of prostaglandin E1]
Isolated rat aorta [2]; relaxation, read-out: relaxing effect on the isolated rat aorta, EC50
  EC50: 2100 nM
[10]
  HDL cholesterol (HDLC), changes of the contents (%, relative to control): 76%
  HDLC/TSC, changes (%, relative to control): 122%
  LDL cholesterol, changes of the contents (%, relative to control): 70%
  Total lipids, changes of the contents (%, relative to control): 72%
  Total serum cholesterol (TSC), changes of the contents (%, relative to control): 78%
  Triglicerides, changes of the contents (%, relative to control): 72%
Human platelets [1]; Homo sapiens, Platelet, read-out: inhibition of ADP-induced aggregation of human platelets, IC50
  IC50: 190 nM

## CCCCC/C=C\C/C=C\C/C=C\C/C=C\CCCC(=O)O [arachidonic acid]
Human platelets [11]
  effect on platelet aggregation (parent acid): powerful inducer of platelet aggregation

## CCC=CCC=CCC=CCC=CC=CC(O)CCCC(=O)OCC(CO[N+](=O)[O-])O[N+](=O)[O-] (centres unmarked) [dinitroglycerol ester of 5-hydroxyeicosapentaenoic acid]
Human platelets [1]
  inhibition of ADP induced human platelet aggregation: 30-50%
